Source: US9944752B2, “Block copolymers for stable micelles” (Intezyne Technologies, Inc., priority 2012, dated 2018)
One block for each molecule: values may come before it.

Tests used:
A549 lung cancer cells = assay: In-vitro cytotoxicity of aminopterin formulations (cell titer-glo); format: cell-based; settings: Homo sapiens, A549, 72 h, read-out: IC50 (cell viability inhibited by 50%)
Description: (§1) Cells originally purchased from ATCC (A549, Panc-1, OVCAR3, and BXPC-3) were seeded in 96 well tissue culture plates to be 50% confluent by 24 hours. Cells were incubated at 37° C. with 5.0% CO2. Cells were treated with escalating doses of free aminopterin, crosslinked aminopterin formulation, uncrosslinked aminopterin formulation, and non drug-loaded micelle formulations 24 hours after plate seeding. Free aminopterin was dissolved in DMSO and administered to cells with a total volume of DMSO equal to or less than 0.0025%. Micelle formulations were re-suspended in biology grade water. Dilutions were done in deep well plates with cell media and water or DMSO (for free aminopterin only) equalizing displaced volume. Incubation media was aspirated from the 96 well plates and 100 μl of each dilution was added to the wells in triplicate and incubated over 72 hours at 37° C. with 5.0% CO2. Crosslinked and uncrosslinked non drug-loaded micelle formulations were administered at the four highest doses and were calculated at comparative mg/ml concentrations to drug-loaded micelle concentrations of delivery vehicle. […] Plates were briefly shaken to mix and luminescence readings were read on a plate reader. Luminescence reading for triplicate doses are averaged and divided by average luminescence readings from untreated cells on the same plate to calculate the % of viable cells per dose. […]

[1] = test system: PANC-1 pancreatic (folate receptor +) cancer cells; assay: as above; format: cell-based; settings: Homo sapiens, PANC-1, 72 h, read-out: IC50 (cell viability inhibited by 50%)
Description: as §1

[2] = Rat pharmacokinetics of crosslinked cabizataxel micelles; parameters: species or system Fisher rats; settings: Fisher, in vivo, iv, 5 mg/kg
Description: The delivery vehicle for drug administration was isotonic saline.

[3] = parameters: species or system Fisher rats; settings: Fisher, rat, in vivo, iv, 10 mg/kg
Description: The delivery vehicle for drug administration was isotonic saline. […] Samples were analyzed on a Waters Alliance 2695 equipped with a 2475 fluorescence detector (Ex=470 nm; Em=580). A 5 μL sample injection was made onto a Waters 4 μm Nova Pak C18 (3.9×150 mm) at 30° C. with a flow rate of 0.750 mL per minute of 10 mM phosphate buffer (pH=1.4), methanol and acetonitrile (gradient from 70/10/20 to 40/10/50 for buffer/methanol/acetonitrile was made over eight minutes). Analyte eluted at 5.9 minutes under these conditions, was normalized to the internal standard, and quantitated using a standard curve comprised of seven standards.

Structure (SMILES): Nc1nc(N)c2nc(CNc3ccc(C(=O)N[C@@H](CCC(=O)O)C(=O)O)cc3)cnc2n1 [Aminopterin, aminopterin]
IC50 (A549 lung cancer cells): 7 to 25 nM | IC50 [1]: 7 to 25 nM

Exposure of cabazitaxel to the plasma compartment over 15 minutes [2]: 0.2 µg·h/mL
Structure (SMILES): CO[C@H]1C(=O)[C@]2(C)[C@@H](OC)C[C@H]3OC[C@@]3(OC(C)=O)[C@H]2[C@H](OC(=O)c2ccccc2)[C@]2(O)C[C@H](OC(=O)[C@H](O)[C@@H](NC(=O)OC(C)(C)C)c3ccccc3)C(C)=C1C2(C)C [free cabizataxel, cabazitaxel]

CMax [3]: 3.3 µg/mL | Half-life [3]: 3.3 h
Structure (SMILES): COc1cccc2c1C(=O)c1c(O)c3c(c(O)c1C2=O)C[C@@](O)(C(C)=O)C[C@@H]3O[C@H]1C[C@H](N)[C@H](O)[C@H](C)O1 [free daunorubicin, daunorubicin]
